According to the NIST ThermoML archive (doi:10.1021/je400056z):

Assay: xn = mol fraction of the nth substance listed
Details: Liquid, Vibrating tube method

CCCCCCCCCCCCC [tridecane] + O=C=O
Details | mass density [kg/m3]
323.16 K, 14000 kPa, x2 = 0.2526 | 751.2
323.16 K, 14000 kPa, x2 = 0.7549 | 788.1
323.16 K, 15000 kPa, x2 = 0.0955 | 748.5
323.16 K, 15000 kPa, x2 = 0.2526 | 752.1
323.16 K, 15000 kPa, x2 = 0.7549 | 791.5
323.16 K, 16000 kPa, x2 = 0.0955 | 749.2
323.16 K, 16000 kPa, x2 = 0.2526 | 752.9
323.16 K, 16000 kPa, x2 = 0.7549 | 794.6
323.16 K, 17000 kPa, x2 = 0.0955 | 750
323.16 K, 17000 kPa, x2 = 0.2526 | 753.7
323.16 K, 17000 kPa, x2 = 0.7549 | 798.1
323.16 K, 18000 kPa, x2 = 0.0955 | 750.7
323.16 K, 18000 kPa, x2 = 0.2526 | 754.4
323.16 K, 18000 kPa, x2 = 0.7549 | 801.2
323.16 K, 19000 kPa, x2 = 0.0955 | 751.4
323.16 K, 19000 kPa, x2 = 0.2526 | 755.2
323.16 K, 19000 kPa, x2 = 0.7549 | 804.1
323.16 K, 20000 kPa, x2 = 0.0955 | 752.1
323.16 K, 20000 kPa, x2 = 0.2526 | 755.9
323.16 K, 20000 kPa, x2 = 0.7549 | 807
323.16 K, 21000 kPa, x2 = 0.0955 | 752.8
323.16 K, 21000 kPa, x2 = 0.2526 | 756.6
323.16 K, 21000 kPa, x2 = 0.7549 | 809.5
323.16 K, 22000 kPa, x2 = 0.0955 | 753.4
323.16 K, 22000 kPa, x2 = 0.2526 | 757.3
323.16 K, 22000 kPa, x2 = 0.7549 | 812.4
323.16 K, 23000 kPa, x2 = 0.0955 | 754.1
323.16 K, 23000 kPa, x2 = 0.2526 | 758
323.16 K, 23000 kPa, x2 = 0.7549 | 815
323.16 K, 24000 kPa, x2 = 0.0955 | 754.7
323.16 K, 24000 kPa, x2 = 0.2526 | 758.7
323.16 K, 24000 kPa, x2 = 0.7549 | 817.5
323.16 K, 25000 kPa, x2 = 0.0955 | 755.3
323.16 K, 25000 kPa, x2 = 0.2526 | 759.3
323.19 K, 8000 kPa, x2 = 0.5259 | 758.8
323.19 K, 9000 kPa, x2 = 0.5259 | 760.1
323.19 K, 10000 kPa, x2 = 0.5259 | 761.4
323.19 K, 11000 kPa, x2 = 0.5259 | 762.6
323.19 K, 12000 kPa, x2 = 0.5259 | 763.8
323.19 K, 13000 kPa, x2 = 0.5259 | 764.9
323.19 K, 14000 kPa, x2 = 0.5259 | 766
323.19 K, 15000 kPa, x2 = 0.5259 | 767.2
323.19 K, 16000 kPa, x2 = 0.5259 | 768.2
323.19 K, 17000 kPa, x2 = 0.5259 | 769.3
323.19 K, 18000 kPa, x2 = 0.5259 | 770.4
323.19 K, 19000 kPa, x2 = 0.5259 | 771.4
323.19 K, 20000 kPa, x2 = 0.5259 | 772.4
323.19 K, 21000 kPa, x2 = 0.5259 | 773.3
323.19 K, 22000 kPa, x2 = 0.5259 | 774.3
323.19 K, 23000 kPa, x2 = 0.5259 | 775.3
323.19 K, 24000 kPa, x2 = 0.5259 | 776.2
323.19 K, 25000 kPa, x2 = 0.5259 | 777
333.14 K, 13000 kPa, x2 = 0.8978 | 737.1
333.14 K, 14000 kPa, x2 = 0.8978 | 745.4
333.14 K, 15000 kPa, x2 = 0.8978 | 754
333.14 K, 16000 kPa, x2 = 0.8978 | 761.2
333.14 K, 17000 kPa, x2 = 0.8978 | 767.9
333.14 K, 18000 kPa, x2 = 0.8978 | 774.1
333.14 K, 19000 kPa, x2 = 0.8978 | 779.5
333.14 K, 20000 kPa, x2 = 0.8978 | 784.8
333.14 K, 21000 kPa, x2 = 0.8978 | 789.8
333.14 K, 22000 kPa, x2 = 0.8978 | 794.7
333.14 K, 23000 kPa, x2 = 0.8978 | 799.2
333.14 K, 24000 kPa, x2 = 0.8978 | 803.5
333.14 K, 25000 kPa, x2 = 0.8978 | 807.8
333.16 K, 8000 kPa, x2 = 0.5259 | 749
333.16 K, 9000 kPa, x2 = 0.5259 | 750.4
333.16 K, 10000 kPa, x2 = 0.5259 | 751.7
333.16 K, 11000 kPa, x2 = 0.5259 | 753
333.16 K, 12000 kPa, x2 = 0.5259 | 754.2
333.16 K, 13000 kPa, x2 = 0.5259 | 755.5
333.16 K, 14000 kPa, x2 = 0.5259 | 756.7
333.16 K, 15000 kPa, x2 = 0.5259 | 757.9
333.16 K, 16000 kPa, x2 = 0.5259 | 759
333.16 K, 17000 kPa, x2 = 0.5259 | 760.2
333.16 K, 18000 kPa, x2 = 0.5259 | 761.3
333.16 K, 19000 kPa, x2 = 0.5259 | 762.4
333.16 K, 20000 kPa, x2 = 0.5259 | 763.4
333.16 K, 21000 kPa, x2 = 0.5259 | 764.5
333.16 K, 22000 kPa, x2 = 0.5259 | 765.5
333.16 K, 23000 kPa, x2 = 0.5259 | 766.5
333.16 K, 24000 kPa, x2 = 0.5259 | 767.5
333.16 K, 25000 kPa, x2 = 0.5259 | 768.5
333.28 K, 12000 kPa, x2 = 0.7549 | 762.3
333.28 K, 13000 kPa, x2 = 0.7549 | 766.5
333.28 K, 14000 kPa, x2 = 0.7549 | 769.6
333.28 K, 15000 kPa, x2 = 0.7549 | 772.6
333.28 K, 16000 kPa, x2 = 0.7549 | 775.6
333.28 K, 17000 kPa, x2 = 0.7549 | 778.6
333.28 K, 18000 kPa, x2 = 0.7549 | 781.5
333.28 K, 19000 kPa, x2 = 0.7549 | 784.5
333.28 K, 20000 kPa, x2 = 0.7549 | 787.4
333.28 K, 21000 kPa, x2 = 0.7549 | 790.4
333.28 K, 22000 kPa, x2 = 0.7549 | 793.1
333.28 K, 23000 kPa, x2 = 0.7549 | 795.7
333.28 K, 24000 kPa, x2 = 0.7549 | 798.4
333.28 K, 25000 kPa, x2 = 0.7549 | 800.8
333.3 K, 9000 kPa, x2 = 0.0955 | 736.6
333.3 K, 9000 kPa, x2 = 0.2526 | 739.5
333.3 K, 10000 kPa, x2 = 0.0955 | 737.4
333.3 K, 10000 kPa, x2 = 0.2526 | 740.4
333.3 K, 11000 kPa, x2 = 0.0955 | 738.3
333.3 K, 11000 kPa, x2 = 0.2526 | 741.4
333.3 K, 12000 kPa, x2 = 0.0955 | 739.1
333.3 K, 12000 kPa, x2 = 0.2526 | 742.3
333.3 K, 13000 kPa, x2 = 0.0955 | 739.9
333.3 K, 13000 kPa, x2 = 0.2526 | 743.1
333.3 K, 14000 kPa, x2 = 0.0955 | 740.8
333.3 K, 14000 kPa, x2 = 0.2526 | 744
333.3 K, 15000 kPa, x2 = 0.0955 | 741.6
333.3 K, 15000 kPa, x2 = 0.2526 | 744.9
333.3 K, 16000 kPa, x2 = 0.0955 | 742.3
333.3 K, 16000 kPa, x2 = 0.2526 | 745.7
333.3 K, 17000 kPa, x2 = 0.0955 | 743.1
